What was measured:
Assay in all cases: relative viability (nuclei count vs DMSO), 5 days (fraction); higher = more cells survive
Tozasertib + Trametinib = compound: Cc1cc(Nc2cc(N3CCN(C)CC3)nc(Sc3ccc(NC(=O)C4CC4)cc3)n2)n[nH]1 [Tozasertib] + CC(=O)Nc1cccc(-n2c(=O)n(C3CC3)c(=O)c3c(Nc4ccc(I)cc4F)n(C)c(=O)c(C)c32)c1 [Trametinib] (partner 0.02 µM)
Method in brief: (§1)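 Lung cancer cell lines in 1536-well plates got either a single drug or a fixed anchor-drug dose together with five library-drug doses (not always all listed) in √10 steps, by pin tool, on the day after seeding. Nuclei were counted after 5 days, and relative viability is the treated-to-vehicle ratio of nuclei counts. Values are medians of duplicate plates.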

Tozasertib + Bortezomib = compound: Cc1cc(Nc2cc(N3CCN(C)CC3)nc(Sc3ccc(NC(=O)C4CC4)cc3)n2)n[nH]1 [Tozasertib] + CC(C)C[C@H](NC(=O)[C@H](Cc1ccccc1)NC(=O)c1cnccn1)B(O)O [Bortezomib] (partner 0.002 µM)
Method in brief: as §1

Tozasertib + AZD7762 = compound: Cc1cc(Nc2cc(N3CCN(C)CC3)nc(Sc3ccc(NC(=O)C4CC4)cc3)n2)n[nH]1 [Tozasertib] + NC(=O)Nc1cc(-c2cccc(F)c2)sc1C(=O)N[C@H]1CCCNC1 [AZD7762] (partner 0.2 µM)
Method in brief: as §1

Tozasertib + Olaparib = compound: Cc1cc(Nc2cc(N3CCN(C)CC3)nc(Sc3ccc(NC(=O)C4CC4)cc3)n2)n[nH]1 [Tozasertib] + O=C(c1cc(Cc2n[nH]c(=O)c3ccccc23)ccc1F)N1CCN(C(=O)C2CC2)CC1 [Olaparib] (partner 8 µM)
Method in brief: as §1

Tozasertib + Dasatinib = compound: Cc1cc(Nc2cc(N3CCN(C)CC3)nc(Sc3ccc(NC(=O)C4CC4)cc3)n2)n[nH]1 [Tozasertib] + Cc1nc(Nc2ncc(C(=O)Nc3c(C)cccc3Cl)s2)cc(N2CCN(CCO)CC2)n1 [Dasatinib] (partner 0.075 µM)
Method in brief: as §1

| Cell Line | relative viability (Tozasertib + Trametinib; first compound 0.01265 µM) | relative viability (Tozasertib + Trametinib; first compound 0.04 µM) | relative viability (Tozasertib + Trametinib; first compound 0.1265 µM) | relative viability (Tozasertib + Bortezomib; first compound 0.004 µM) | relative viability (Tozasertib + Bortezomib; first compound 0.01265 µM) | relative viability (Tozasertib + Bortezomib; first compound 0.04 µM) | relative viability (Tozasertib + Bortezomib; first compound 0.1265 µM) | relative viability (Tozasertib + AZD7762; first compound 0.004 µM) | relative viability (Tozasertib + AZD7762; first compound 0.01265 µM) | relative viability (Tozasertib + AZD7762; first compound 0.04 µM) | relative viability (Tozasertib + AZD7762; first compound 0.1265 µM) | relative viability (Tozasertib + Olaparib; first compound 0.004 µM) | relative viability (Tozasertib + Olaparib; first compound 0.01265 µM) | relative viability (Tozasertib + Olaparib; first compound 0.04 µM) | relative viability (Tozasertib + Olaparib; first compound 0.1265 µM) | relative viability (Tozasertib + Trametinib; first compound 0.004 µM) | relative viability (Tozasertib + Dasatinib; first compound 0.004 µM) | relative viability (Tozasertib + Dasatinib; first compound 0.01265 µM) | relative viability (Tozasertib + Dasatinib; first compound 0.04 µM) | relative viability (Tozasertib + Dasatinib; first compound 0.1265 µM) |
| --- | --- | --- | --- | --- | --- | --- | --- | --- | --- | --- | --- | --- | --- | --- | --- | --- | --- | --- | --- | --- |
| HCC-44 | 1.03 | 1.22 | 1 | 0.866 | 0.942 | 1.04 | 0.786 | 1.05 | 0.994 | 0.929 | 0.845 | 0.961 | 0.924 | 1.02 | 0.914 |  |  |  |  |  |
| NCI-H2085 | 0.6 | 0.504 | 0.476 | 1.01 | 1.07 | 1.11 | 0.792 | 0.928 | 0.906 | 0.971 | 0.929 | 0.82 | 0.752 | 0.782 | 0.711 | 0.681 | 0.235 | 0.231 | 0.244 | 0.228 |
| RERF-LC-KJ | 0.841 | 0.862 |  | 0.983 | 1.11 | 1.12 | 0.96 | 1.08 |  | 1.06 | 0.371 | 0.945 | 0.871 | 0.865 | 0.668 | 0.807 | 0.729 | 0.806 | 0.852 | 0.582 |
| NCI-H1355 | 0.436 | 0.465 | 0.402 | 1.19 | 1.15 | 1.27 | 0.606 | 0.76 | 0.698 | 0.77 | 0.661 | 0.748 | 0.694 | 0.689 | 0.545 | 0.43 | 0.691 | 0.706 | 0.843 | 0.49 |
| NCI-H522 |  | 0.671 | 0.711 |  |  |  |  |  | 0.841 | 0.772 | 0.47 | 0.619 |  | 0.603 | 0.531 | 0.825 | 0.836 | 1.12 | 1.01 | 0.725 |
| LU99A | 0.504 | 0.494 | 0.373 | 1.1 | 0.917 | 0.881 |  | 0.314 | 0.328 | 0.306 | 0.169 | 0.251 | 0.212 | 0.26 | 0.251 | 0.545 | 0.751 | 0.513 | 0.547 | 0.373 |
| LOU-NH91 | 0.811 | 0.838 | 0.793 | 0.423 | 0.51 | 0.485 | 0.408 | 0.733 | 0.719 | 0.838 | 0.64 | 0.781 | 0.916 | 0.937 | 0.922 | 0.692 |  | 0.519 | 0.573 | 0.499 |
| NCI-H3122 | 0.244 | 0.239 | 0.23 | 1.01 | 0.994 | 1.01 | 1.02 | 1 | 0.952 | 1.06 | 1.07 | 0.646 | 0.67 | 0.62 | 0.641 | 0.198 | 0.71 | 0.802 | 0.913 | 0.886 |

From the supplement of paper PMC10307832
